# Test system: HEK-Blue TGFβ cell
# Assay: HEK-Blue TGFβ cellular reporter gene assay (SEAP readout)
# Assay type: cell-based
# Conditions: HEK-Blue TGFβ cells stimulated with TGF-β, 22-23 h incubation, SEAP read at 630 nm
# Description: HEK-Blue TGFβ Cellular Reporter Gene Assay:
# HEK-Blue TGFβ cell was purchased from Invivogen. Cell suspension of 2.5×10^5 cells/ml was prepared using Test Medium (DMEM containing 0.5% v/v heat-inactivated FBS). TGF-β working solution (6 ng/ml) was obtained through diluting TGF-β stock solution (10 μg/ml) by Test Medium before use. Eight different concentrations of all compounds were obtained by 3× gradient dilution method using TGF-β working solution. Add 100 μl of Test Medium (Vehicle) or test article or TGF-β working solution per well of a flat-bottom 96-well plate. Add 100 μl of HEK-Blue TGF-β cell suspension per well. Incubate the plate at 37° C. in a CO2 incubator for 22-23 h. Add 150 μl of resuspended QUANTI-Blue per well of a new flat-bottom 96-well plate. Add 30 μl of induced HEK-Blue TGF-β cells supernatant. Avoid pipetting at the bottom of wells. Incubate the plate at 37° C. incubator for 30-40 min. Determine secreted embryonic alkaline phosphatase (SEAP) levels using a spectrophotometer at 630 nm.
# The inhibition was calculated using the equation: […]
row,SMILES,IC50 [nM]
1,Cc1cc(Oc2ccnc(Nc3cccc(CCc4nnn[nH]4)c3C)c2)c(-c2ccccn2)nc1C [Example 27],250
2,Cc1ccc(Oc2ccnc(Nc3cncc(CCC(=O)O)c3)c2)c(C)n1 [Example 38],> 10000
3,Cc1cc(Oc2ccnc(Nc3ccnc(CCC(=O)O)c3)c2)c(-c2ccccn2)nc1C [Example 9],> 10000
4,Cc1nc(-c2ccccc2)c(Oc2ccnc(Nc3cccc(C(C)(C)C(=O)O)c3)c2)cc1C(C)(C)O [Example 103],> 10000
5,Cc1cc(Oc2ccnc(Nc3cccc(CCc4nnn[nH]4)c3F)c2)c(-c2ccccn2)nc1C [Example 25],640
6,Cc1cc(Nc2cc(Oc3ccc(C)nc3-c3ccccc3)ccn2)cc(C(C)(C)C(=O)O)c1 [Example 142],7
7,c1ccc(-c2nn(C3CC3)cc2Oc2ccnc(Nc3cccc(Cc4nn[nH]n4)c3)c2)cc1 [Example 198],110
8,CCc1ccc(Oc2ccnc(Nc3cc(C)cc(C(C)(C)C(=O)O)c3)c2)c(C)n1 [Example 144],75
9,"CCc1ccc(Oc2ccnc(Nc3cccc(CC(C)(C)C(=O)O)c3)c2)c(C)n1 [Example 133, 3-(3-((4-((6-ethyl-2-methylpyridin-3-yl)oxy)pyridin-2-yl)amino)phenyl)-2,2-dimethylpropanoic acid]",28
10,Cc1ccc(Oc2ccnc(Nc3cccc(CCc4nn[nH]n4)c3F)c2)c(C)n1 [Example 46],520
11,O=C(O)CCc1cc(Nc2cc(Oc3cn(C4CC4)nc3C3CCOCC3)ccn2)ccn1 [Example 69],> 10000
12,Cc1ccc(Oc2ccnc(Nc3cccc(C(C)(C)C(=O)O)c3)c2)c(-c2ccc(Cl)cc2)n1 [Example 79],180
13,"Cc1cc(Oc2ccnc(Nc3cccc(Cc4nnnn4CC(=O)O)c3)c2)c(-c2ccccn2)nc1C [Example 34B, 2-(5-(3-((4-((5,6-dimethyl-[2,2′-bipyridin]-3-yl)oxy)pyridin-2-yl)amino)benzyl)-1H-tetrazol-1-yl)acetic acid]",> 10000
14,Cc1cc(Oc2ccnc(Nc3ccc(C(F)(F)F)c(CCc4nn[nH]n4)c3)c2)c(-c2ccccn2)nc1C [Example 22],230
15,CCc1ccc(Oc2ccnc(Nc3cc(C)cc(CC(C)(C)C(=O)O)c3)c2)c(C)n1 [Example 145],33
16,Cc1ccc(Oc2ccnc(Nc3cncc(CCc4nn[nH]n4)c3)c2)c(C)n1 [Example 49],> 10000
17,CC(C)(C(=O)O)c1cccc(Nc2cc(Oc3cn(CC(F)F)nc3-c3ccccc3)ccn2)c1 [Example 123],180
18,CC(C)(C(=O)O)c1ccc(Nc2cc(Oc3cn(C4CC4)nc3C3CCOCC3)ccn2)cc1 [Example 113],510
19,Cc1cc(Nc2cc(Oc3cn(C4CCC4)nc3-c3ccccc3)ccn2)cc(C(C)(C)C(=O)O)c1 [Example 172],120
20,CCc1ccc(Oc2ccnc(Nc3cccc(CCc4nn[nH]n4)c3)c2)c(C)n1 [Example 57],130
21,Cc1cc(Oc2ccnc(Nc3ccn(CCc4nn[nH]n4)n3)c2)c(-c2ccccn2)nc1C [Example 32],3710
22,"Cc1ccc(Oc2ccnc(Nc3cccc(CCC(=O)O)c3)c2)c(-c2ccccc2)n1 [Example 66, 3-(3-((4-((6-methyl-2-phenylpyridin-3-yl)oxy)pyridin-2-yl)amino)phenyl)propanoic acid]",24
23,Cc1ccc(Oc2ccnc(Nc3cc(CCC(=O)O)ccn3)c2)c(C)n1 [Example 42],140
24,CCc1ccc(Oc2ccnc(Nc3cc(C)cc(CCC(=O)O)c3)c2)c(C)n1 [Example 147],25
25,Cc1cc(Nc2cc(Oc3cn(C4CC4)nc3-c3ccccc3)ccn2)cc(C(C)(C)C(=O)O)c1 [Example 169],7

row,SMILES,IC50 [nM]
1,c1cc(Cc2nn[nH]n2)cc(Nc2cc(Oc3cn(C4CC4)nc3C3CCOCC3)ccn2)c1 [Example 193],> 10000
2,Cc1ccc(Oc2ccnc(Nc3cccc(C(C)(C)C(=O)O)c3)c2)c(-c2cccc(C#N)c2)n1 [Example 96],190
3,CC(C)(C(=O)O)c1cccc(Nc2cc(Oc3cn(C4CCC4)nc3-c3ccccc3)ccn2)c1 [Example 125],66
4,CC(C)(C(=O)O)c1cccc(Nc2cc(Oc3cn(C4CCC4)nc3C3CCOCC3)ccn2)c1 [Example 118],310
5,"Cc1ccc(Oc2ccnc(Nc3cccc(C(C)(C)C(=O)O)c3)c2)c(-c2ccccn2)n1 [Example 72, 2-methyl-2-(3-((4-((6-methyl-[2,2′-bipyridin]-3-yl)oxy)pyridin-2-yl)amino)phenyl)propanoic acid]",180
6,CCc1nc(C)c(Oc2ccnc(Nc3cc(C)cc(CCc4nn[nH]n4)c3)c2)cc1C [Example 190],6
7,CCc1nc(C)c(Oc2ccnc(Nc3cc(C)cc(CCC(=O)O)c3)c2)cc1C [Example 150],27
8,Cc1cc(Oc2ccnc(Nc3cccc(CCc4nn[nH]n4)c3)c2)c(C)nc1C [Example 188],73
9,Cc1nc(-c2ccccc2)ccc1Oc1ccnc(Nc2cccc(C(C)(C)C(=O)O)c2)c1 [Example 75],8120
10,CC(C)c1ccc(Oc2ccnc(Nc3cccc(C(C)(C)C(=O)O)c3)c2)c(-c2ccccc2)n1 [Example 107],180
11,Cc1ccc(Oc2ccnc(Nc3cccc(C(C)(C)C(=O)O)c3)c2)c(C)n1 [Example 73],140
12,CC(C)(C(=O)O)c1cccc(Nc2cc(Oc3cn(C(F)F)nc3-c3ccccc3)ccn2)c1 [Example 121],78
13,CCc1nc(C)c(Oc2ccnc(Nc3cccc(CC(C)(C)C(=O)O)c3)c2)cc1Cl [Example 155],30
14,"CCc1nc(C)c(Oc2ccnc(Nc3cccc(CC4(C(=O)O)COC4)c3)c2)cc1C [Example 174, 3-(3-((4-((6-ethyl-2,5-dimethylpyridin-3-yl)oxy)pyridin-2-yl)amino)benzyl)oxetane-3-carboxylic acid]",57
15,Cc1cc(Oc2ccnc(Nc3cc(CCc4nnn[nH]4)ccc3F)c2)c(-c2ccccn2)nc1C [Example 19],160
16,COc1cccc(-c2nc(C)ccc2Oc2ccnc(Nc3cccc(C(C)(C)C(=O)O)c3)c2)c1 [Example 87],94
17,Cc1cc(Oc2ccnc(Nc3cccc(-c4nnn[nH]4)c3)c2)c(-c2ccccn2)nc1C [Example 13],1080
18,Cc1ccc(Oc2ccnc(Nc3cccc(C(C)(C)C(=O)O)c3)c2)c(-c2cccc(F)c2)n1 [Example 90],24
19,Cc1ccc(Nc2cc(Oc3cn(C4CC4)nc3C3CCOCC3)ccn2)cc1CC(=O)O [Example 115],1100
20,c1ccc(-c2nn(C3CC3)cc2Oc2ccnc(Nc3cccc(CCc4nn[nH]n4)c3)c2)cc1 [Example 197],35
21,CC(C)(Cc1cccc(Nc2cc(Oc3cn(C4CC4)nc3-c3ccccc3)ccn2)c1)C(=O)O [Example 168],210
22,CCc1ccc(Oc2ccnc(Nc3cccc(CCC(=O)O)c3)c2)c(-c2ccccn2)n1 [Example 138],49
23,Cc1nc(-c2ccccn2)c(Oc2ccnc(Nc3cccc(CCc4nn[nH]n4)c3)c2)cc1C(C)C [Example 183],240
24,"O=C(O)C(F)(F)c1cccc(Nc2cc(Oc3cn(C4CC4)nc3-c3ccccc3)ccn2)c1 [Example 132, 2-(3-((4-((1-cyclopropyl-3-phenyl-1H-pyrazol-4-yl)oxy)pyridin-2-yl)amino)phenyl)-2,2-difluoroacetic acid]",> 10000
25,Cc1cc(Oc2ccnc(Nc3ccc(Cl)c(CCc4nnn[nH]4)c3)c2)c(-c2ccccn2)nc1C [Example 20],120

# Reference: patent US20220054465A1, “(PYRIDIN-2-YL)AMINE DERIVATIVES AS TGF-BETA R1 (ALK5) INHIBITORS FOR THE TREATMENT OF CANCER” (Nexys Therapeutics, Inc., priority 2018, published 2022)
